Patent publication US20100311877A1, “NOVEL TRIAZINE DERIVATIVE, ULTRAVIOLET ABSORBER, AND RESIN COMPOSITION” (FUJIFILM Corporation, priority 2009, published 2010)

Key:
[1] = Measurement of pKa (perchloric acid titration, absorption spectrum); assay type: physicochemical; details: in acetonitrile, 70% perchloric acid (acetic acid as solvent) added dropwise; ratio of triazine-free compound and proton adduct from absorbance at λmax
Method: Exemplified compound (1) was dissolved in acetonitrile to give its absorption coefficient of 1. […] At that time, a solution absorption spectrum was measured and a ratio of a triazine-free compound and a proton adduct at each pH was computed from the absorbance at λmax. The value of pKa was determined from a point at which the ratio became 1. […] The absorption spectrum was measured using a spectrophotometer “UV-3600” (trade name; product of Shimadzu Corp), while pH was measured using a pH meter “H[…]” (trade name; product of Toa Denpa Kogyo).

[2] = Light resistance of PMMA polymer film (remaining amount after metal halide lamp exposure); assay type: physicochemical; details: 50-μm PMMA film on glass, 0.2 mass % compound in coating solution, illuminance 90 mW/cm^2, 63° C., humidity 50%, 400 hours after exposure, transmittance at maximum absorption wavelength
Method: A binder solution was prepared by dissolving 22 mass % of a PMMA resin (“[…] BR-80”, trade name; product of Mitsubishi Rayon) in methylene chloride. A coating solution was then prepared by dissolving 0.2 mass % of Exemplified compound (1) in the resulting binder solution. Using glass as a base material, the resulting coating solution was applied thereto with a 200 μm blade and dried at 100° C. for 10 minutes into a 50-μm thick coating to prepare a film. […] The absorbance of the film was measured with a spectrophotometer “UV-3600” (trade name; product of Shimadzu Corp). The film was exposed to light of a metal halide lamp (“Eye super UV tester”, trade name; product of Iwasaki Electric) under the conditions of illuminance of 90 mW/cm^2, temperature of 63° C., and humidity of 50%. The remaining amount of each compound 400 hours after exposure was measured. The remaining amount was computed in accordance with the following equation: Remaining amount(%)=100×(100-(transmittance after exposure))/(100-(transmittance before exposure)) The transmittance is a value measured at the maximum absorption wavelength of each compound.

Row | Structure (SMILES) | pKa [1] | Remaining amount (%) [2] [%]
1 | CCCCCCOc1ccc(-c2nc(-c3ccccc3)nc(-c3ccccc3)n2)c(O)c1 [Comparative compound A] | -4.9 | 63
2 | CCCCCCCCOc1ccc(-c2nc(-c3ccc(C)cc3C)nc(-c3ccc(C)cc3C)n2)c(O)c1 [Comparative compound B] | -4.4 | 21
